Measured values from PubChem BioAssay AID1919007 (Molecular Pharmacology Branch, DTP, NCI, 2023).

Tested on: A498 complex spheroids with HUVEC/MSC, growth
Assay: Anticancer human tumor A498 cell line growth inhibition [AhR];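 note: seven day exposure starting three days after spheroid seeding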;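 for viability, T/C: luminescence signal used as a surrogate for viable cells; luminescence viability scaled so 100% equals DMSO vehicle wells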
Settings: for viability, T/C: stronger effect = lower value
Excerpt: Multicellular complex tumor spheroid response to aryl hydrocarbon receptor antagonists in combination with a variety of drugs and investigational agents in selected tumor cell lines
The current study was undertaken to assess response to aryl hydrocarbon receptor antagonists in combination with standard-of-care drugs and investigational agents in solid tumor complex spheroid models. Complex spheroids include a stromal component modeled by human endothelial cells (HUVEC) and fibroblasts modeled by human mesenchymal stem cells (MSCs). The concentration ranges selected for each drug and investigational agent were based upon clinically achievable concentrations if the clinical Cmax of the agent was known.
Compounds. The drugs and investigational agents: BAY 2416964 (NSC825713), GNF351 (NSC835774), CH-223191 (NSC835775), CPI-455 (NSC825282), aza-TdCyd (NSC777586), decitabine (NSC127716), belinostat (NSC758774), entinostat (NSC756642), pevonedistat (NSC761192), tazemetostat (NSC777109), talazoparib (NSC765396), olaparib (NSC753686), selinexor (NSC780203), nedisertib (M3814, NSC802822), bortezomib (NSC756655), venetoclax (NSC766270), doxorubicin (NSC123127), elimusertib (BAY189344, NSC800525), ceralasertib (AZD6738, NSC777638), TAK-243 (NSC785004), alisertib (NSC759677), etoposide (NSC141540), topotecan (NSC609699), eribulin (NSC707389), gemcitabine (NSC613327), carboplatin (NSC241240), cisplatin (NSC119875), and SN-38 (NSC673596) were obtained from the National Cancer Institute (NCI) Developmental Therapeutics Program Chemical Repository (32). The FDA-approved anticancer drug set is available from the Developmental Therapeutics Program at https://dtp.cancer.gov/organization/dscb/obtaining/available plates.htm. […] The stock solutions were prepared in dimethyl sulfoxide (DMSO, Sigma-Aldrich, St. Louis, MO, cat. D2650), except for the platinum compounds which were prepared in saline (Quality Biological, Gaithersburg, MD, cat. 114-055-101), at 800-fold the tested concentration and stored at -70 degrees C prior to their use. All drugs and investigational agents were tested over a range starting from a high concentration at or near the clinical Cmax and decreasing in half-log increments. If the clinical Cmax for an agent had not been determined, the highest concentration tested was 10 microM (Table 1).
Cell Culture. All cells were maintained in an incubator at 37 degrees C and 5% CO2 with 95% humidity. The PDC lines were cultured according to standard operating procedures established by the NCI PDMR (https://pdmr.cancer.gov). Briefly, all PDCs were thawed and cultured in Matrigel-coated flasks prepared with a working solution of 1X Ham's F-12 nutrient mix, without supplementation (Invitrogen, Waltham, MA, cat. 11765054), 100 U/mL penicillin-streptomycin (Invitrogen, cat. 15140122), and 2.5% Matrigel (Corning Inc., Corning, NY, cat. 354248) for the first three passages. All PDCs were cultured in complete DMEM/F-12 media containing advanced DMEM/F-12 (Invitrogen, cat. 12634028), 4.9% defined fetal bovine serum, heat inactivated (HyClone Laboratories Inc., Logan, UT, cat. SH30070.03HI), 389 ng/mL hydrocortisone (Sigma-Aldrich, cat. H4001), 9.7 ng/mL human EGF recombinant protein (Invitrogen, cat. PHG0313), 23.4 microg/mL adenine (Sigma-Aldrich, cat. A2786), 97.3 U/mL penicillin-streptomycin (Invitrogen, cat. 15140122), 1.9 mM L-glutamine (Invitrogen, cat. 25030081), and 9.7 microM Y-27632 dihydrochloride (Tocris Bioscience, Bristol, United Kingdom, cat. 1254). The PDCs were cultured in complete DMEM/F12 media without 10 microM Y-27632 dihydrochloride for at least two passages prior to the screen. The established cell lines NCI-H1341 and […] were cultured in DMEM/F-12, HEPES (Invitrogen, cat. 11330032), 5% defined fetal bovine serum (HyClone Laboratories Inc., cat. SH30070.03), ITS premix universal culture supplement [insulin (5 microg/mL), transferrin (5 microg/mL), and selenious acid (5 ng/mL)] […]

[1] = curve of first compound, second compound 0.1 µM
[2] = curve of first compound, second compound 0.316 µM
[3] = curve of first compound, second compound 1 µM
[4] = curve of first compound, second compound 3.16 µM
[5] = curve of first compound, second compound 10 µM
[6] = second compound 0.1 µM, first compound 0.0316 µM
[7] = second compound 0.1 µM, first compound 0.1 µM
[8] = second compound 0.1 µM, first compound 0.316 µM
[9] = second compound 0.1 µM, first compound 1 µM
[10] = second compound 0.1 µM, first compound 3.16 µM
[11] = second compound 0.1 µM, first compound 10 µM
[12] = second compound 0.316 µM, first compound 0.0316 µM
[13] = second compound 0.316 µM, first compound 0.1 µM
[14] = second compound 0.316 µM, first compound 0.316 µM
[15] = second compound 0.316 µM, first compound 1 µM
[16] = second compound 0.316 µM, first compound 3.16 µM
[17] = second compound 0.316 µM, first compound 10 µM
[18] = second compound 1 µM, first compound 0.0316 µM
[19] = second compound 1 µM, first compound 0.1 µM
[20] = second compound 1 µM, first compound 0.316 µM
[21] = second compound 1 µM, first compound 1 µM
[22] = second compound 1 µM, first compound 3.16 µM
[23] = second compound 1 µM, first compound 10 µM
[24] = second compound 3.16 µM, first compound 0.0316 µM
[25] = second compound 3.16 µM, first compound 0.1 µM
[26] = second compound 3.16 µM, first compound 0.316 µM
[27] = second compound 3.16 µM, first compound 1 µM
[28] = second compound 3.16 µM, first compound 3.16 µM
[29] = second compound 3.16 µM, first compound 10 µM
[30] = second compound 10 µM, first compound 0.0316 µM
[31] = second compound 10 µM, first compound 0.1 µM
[32] = second compound 10 µM, first compound 0.316 µM
[33] = second compound 10 µM, first compound 1 µM
[34] = second compound 10 µM, first compound 3.16 µM
[35] = second compound 10 µM, first compound 10 µM

Row | SMILES | IC50 [1] | IC50 [2] | IC50 [3] | IC50 [4] | IC50 [5] | viability, T/C [6] | viability, T/C [7] | viability, T/C [8] | viability, T/C [9] | viability, T/C [12] | viability, T/C [13] | viability, T/C [14] | viability, T/C [15] | viability, T/C [18] | viability, T/C [19] | viability, T/C [20] | viability, T/C [21] | viability, T/C [24] | viability, T/C [25] | viability, T/C [26] | other results
1 | Cc1ccccc1N=Nc1ccc(NC(=O)c2ccnn2C)c(C)c1 |  |  |  |  |  |  |  |  |  |  |  |  |  |  |  |  |  |  |  |  | viability, T/C (compound 0.1 µM): 88.8% [middle of 20 runs]; viability, T/C (compound 0.316 µM): 96.8% [middle of 20 runs]; viability, T/C (compound 1 µM): 89.2% [middle of 20 runs]; viability, T/C (compound 3.16 µM): 84.9% [middle of 20 runs]; viability, T/C (compound 10 µM): 86.3% [middle of 20 runs]; IC50 (compound alone, run of 08/22/2022): > 10000 nM
2 | COc1cc(C2c3cc4c(cc3C(OC3OC5COC(C)OC5C(O)C3O)C3COC(=O)C23)OCO4)cc(OC)c1O (stereo unspecified) + CC(CO)NC(=O)c1cc(-c2ccc(Cl)cc2)nn(-c2cnn(C)c2)c1=O | 2970 nM | 2080 nM | 1560 nM | 1080 nM | 400 nM | 74.1% | 81.2% | 69.4% | 57.7% | 74.2% | 73.1% | 68% | 52.9% | 66.7% | 77% | 71.3% | 53.3% | 64.4% | 66.7% | 64.5% | viability, T/C [10]: 52.5%; viability, T/C [11]: 42.2%; viability, T/C [16]: 49.8%; viability, T/C [17]: 40.1%; viability, T/C [22]: 47.3%; viability, T/C [23]: 40.3%; viability, T/C [27]: 50.2%; viability, T/C [28]: 41.9%; viability, T/C [29]: 38.2%; viability, T/C [30]: 49.3%; viability, T/C [31]: 57.7%; viability, T/C [32]: 53.3%; viability, T/C [33]: 37.9%; viability, T/C [34]: 37.3%; viability, T/C [35]: 30.7%
3 | COc1cccc2c1C(=O)c1c(O)c3c(c(O)c1C2=O)CC(O)(C(=O)CO)CC3OC1CC(N)C(O)C(C)O1 (stereo unspecified) + CC(CO)NC(=O)c1cc(-c2ccc(Cl)cc2)nn(-c2cnn(C)c2)c1=O | 129 nM | 148 nM | 231 nM | 119 nM | < 31.6 nM | 55.1% | 55.6% | 37.6% | 16.1% | 55% | 53.3% | 43.3% | 16.4% | 56.1% | 56.2% | 47.7% | 20.4% | 52.6% | 49.8% | 44.1% | viability, T/C [10]: 2.16%; viability, T/C [11]: 0.7%; viability, T/C [16]: 2.65%; viability, T/C [17]: 0.83%; viability, T/C [22]: 4.74%; viability, T/C [23]: 2.49%; viability, T/C [27]: 11.3%; viability, T/C [28]: 3.01%; viability, T/C [29]: 1.69%; viability, T/C [30]: 46.6%; viability, T/C [31]: 38.5%; viability, T/C [32]: 31.9%; viability, T/C [33]: 1.3%; viability, T/C [34]: 2.75%; viability, T/C [35]: 0.83%
4 | Nc1ncn(C2CC(O)C(CO)O2)c(=O)n1 (stereo unspecified) + CC(CO)NC(=O)c1cc(-c2ccc(Cl)cc2)nn(-c2cnn(C)c2)c1=O | > 1000 nM | > 1000 nM | > 1000 nM | > 1000 nM | > 1000 nM | 88% | 76.1% | 77.8% | 66.7% | 86.2% | 78.2% | 76% | 66.9% | 88.4% | 75.1% | 75.4% | 67% | 84% | 70.7% | 67.1% | viability, T/C (second compound 0.1 µM, first compound 0.00316 µM): 96.1%; viability, T/C (second compound 0.1 µM, first compound 0.01 µM): 91.9%; viability, T/C (second compound 0.316 µM, first compound 0.00316 µM): 83.7%; viability, T/C (second compound 0.316 µM, first compound 0.01 µM): 97.2%; viability, T/C (second compound 1 µM, first compound 0.00316 µM): 88.3%; viability, T/C (second compound 1 µM, first compound 0.01 µM): 87%; viability, T/C (second compound 3.16 µM, first compound 0.00316 µM): 79.7%; viability, T/C (second compound 3.16 µM, first compound 0.01 µM): 85.7%; viability, T/C [27]: 59.2%; viability, T/C (second compound 10 µM, first compound 0.00316 µM): 62%; viability, T/C (second compound 10 µM, first compound 0.01 µM): 67.1%; viability, T/C [30]: 67%; viability, T/C [31]: 55.8%; viability, T/C [32]: 52.8%; viability, T/C [33]: 53.6%
